Experiments:
[1] = Elution from loaded gauze; format: physicochemical
Description: The gauzes were weighed before soaking, after soaking and after drying for 24 hours. To assess the elution profile of the EDTA complexes from gauze, the loaded gauzes were immersed in water and saline (Table 6 and Table 7). […] After day 2, the eluting of silver, zinc and EDTA decreased more than 5 times compared to day 1.

[2] = Cumulative elution from carbopol hydrogel; format: physicochemical
Description: Hydrogels were loaded with EDTA compounds and investigated for elution of the silver, zinc and EDTA. Carbopol ETD 2020 was obtained from Lubrizol Advanced Materials, Inc. USA. 1.2 g carbopol power was dissolved in 42.36 g deionized water for 1 hour to fully hydrate. Then 8.4 ml of the EDTA complexes and 4.8 g glycerine were added into carbopol solution with vigorous stirring; finally, 3 g 50% triethanolamine was dropped into the suspension to obtain final products: carbopol hydrogel with EDTA complexes.
The silver, zinc and EDTA increased in saline day by day, which indicated the release of silver, zinc and EDTA can be controlled from the hydrogel.

## O=C([O-])CN(CCN(CC(=O)[O-])CC(=O)[O-])CC(=O)[O-].[Ag+].[Ag+].[Zn+2] [EDTA compound 4, sample 1]
[1]; day 1
  Elution in saline (ppm) EDTA: 24.65 ± 2.40 ppm
  Elution in saline (ppm) Silver: 49.91 ± 2.29 ppm
  Elution in saline (ppm) Zinc: 29.69 ± 2.40 ppm
  Elution in water (ppm) EDTA: 18.09 ± 3.19 ppm
  Elution in water (ppm) Silver: 35.89 ± 5.66 ppm
  Elution in water (ppm) Zinc: 21.99 ± 2.85 ppm
[1]; day 2
  Elution in saline (ppm) EDTA: 9.19 ± 3.42 ppm
  Elution in saline (ppm) Silver: 12.76 ± 4.44 ppm
  Elution in saline (ppm) Zinc: 9.14 ± 2.77 ppm
  Elution in water (ppm) EDTA: 12.54 ± 3.11 ppm
  Elution in water (ppm) Silver: 25.27 ± 5.63 ppm
  Elution in water (ppm) Zinc: 15.66 ± 2.73 ppm
[1]; day 3
  Elution in saline (ppm) EDTA: 1.83 ± 0.26 ppm
  Elution in saline (ppm) Silver: 3.43 ± 0.54 ppm
  Elution in saline (ppm) Zinc: 3.71 ± 0.27 ppm
  Elution in water (ppm) EDTA: 1.90 ± 0.79 ppm
  Elution in water (ppm) Silver: 4.93 ± 2.56 ppm
  Elution in water (ppm) Zinc: 4.42 ± 1.62 ppm
[1]; day 4
  Elution in saline (ppm) EDTA: 1.28 ± 0.84 ppm
  Elution in saline (ppm) Silver: 2.29 ± 1.73 ppm
  Elution in saline (ppm) Zinc: 3.42 ± 0.93 ppm
  Elution in water (ppm) EDTA: 1.27 ± 0.84 ppm
  Elution in water (ppm) Silver: 1.75 ± 0.76 ppm
  Elution in water (ppm) Zinc: 3.26 ± 0.35 ppm
[1]; day 5
  Elution in saline (ppm) EDTA: 0.45 ± 0.15 ppm
  Elution in saline (ppm) Silver: 2.52 ± 2.26 ppm
  Elution in saline (ppm) Zinc: 2.68 ± 2.00 ppm
  Elution in water (ppm) EDTA: 0.87 ± 0.36 ppm
  Elution in water (ppm) Silver: 0.85 ± 0.34 ppm
  Elution in water (ppm) Zinc: 2.06 ± 1.21 ppm
[2]; day 1
  Elution in saline (ppm) EDTA: 26.39 ± 2.06 ppm
  Elution in saline (ppm) Silver: 32.09 ± 3.02 ppm
  Elution in saline (ppm) Zinc: 22.12 ± 3.31 ppm
  Elution in water (ppm) EDTA: 31.12 ± 5.40 ppm
  Elution in water (ppm) Silver: 44.39 ± 5.98 ppm
  Elution in water (ppm) Zinc: 31.88 ± 3.53 ppm
[2]; day 2
  Elution in saline (ppm) EDTA: 27.18 ± 2.34 ppm
  Elution in saline (ppm) Silver: 37.09 ± 2.91 ppm
  Elution in saline (ppm) Zinc: 30.90 ± 5.81 ppm
  Elution in water (ppm) EDTA: 26.21 ± 4.20 ppm
  Elution in water (ppm) Silver: 47.13 ± 5.03 ppm
  Elution in water (ppm) Zinc: 36.09 ± 3.61 ppm
[2]; day 3
  Elution in saline (ppm) EDTA: 35.02 ± 0.72 ppm
  Elution in saline (ppm) Silver: 47.05 ± 2.79 ppm
  Elution in saline (ppm) Zinc: 36.73 ± 3.64 ppm
  Elution in water (ppm) EDTA: 37.28 ± 2.58 ppm
  Elution in water (ppm) Silver: 45.58 ± 4.54 ppm
  Elution in water (ppm) Zinc: 34.28 ± 4.55 ppm
[2]; day 4
  Elution in saline (ppm) EDTA: 37.71 ± 1.92 ppm
  Elution in saline (ppm) Silver: 51.24 ± 1.53 ppm
  Elution in saline (ppm) Zinc: 40.31 ± 1.84 ppm
  Elution in water (ppm) EDTA: 37.53 ± 3.27 ppm
  Elution in water (ppm) Silver: 46.88 ± 6.86 ppm
  Elution in water (ppm) Zinc: 33.78 ± 2.20 ppm
[2]; day 5
  Elution in saline (ppm) EDTA: 40.57 ± 1.41 ppm
  Elution in saline (ppm) Silver: 59.55 ± 1.21 ppm
  Elution in saline (ppm) Zinc: 43.22 ± 3.91 ppm
  Elution in water (ppm) EDTA: 35.11 ± 5.39 ppm
  Elution in water (ppm) Silver: 45.91 ± 7.04 ppm
  Elution in water (ppm) Zinc: 35.99 ± 1.16 ppm

## O=C([O-])CN(CCN(CC(=O)[O-])CC(=O)[O-])CC(=O)[O-].[Ag+].[Ag+].[Zn+2] [EDTA compound 4, sample 2]
[1]; day 1
  Elution in saline (ppm) EDTA: 17.31 ± 1.77 ppm
  Elution in saline (ppm) Silver: 27.32 ± 3.84 ppm
  Elution in saline (ppm) Zinc: 22.71 ± 1.75 ppm
  Elution in water (ppm) EDTA: 13.23 ± 1.28 ppm
  Elution in water (ppm) Silver: 23.32 ± 3.95 ppm
  Elution in water (ppm) Zinc: 17.08 ± 3.09 ppm
[1]; day 2
  Elution in saline (ppm) EDTA: 6.84 ± 2.67 ppm
  Elution in saline (ppm) Silver: 8.36 ± 2.37 ppm
  Elution in saline (ppm) Zinc: 7.67 ± 2.03 ppm
  Elution in water (ppm) EDTA: 8.74 ± 2.01 ppm
  Elution in water (ppm) Silver: 16.28 ± 3.75 ppm
  Elution in water (ppm) Zinc: 12.78 ± 1.55 ppm
[1]; day 3
  Elution in saline (ppm) EDTA: 1.75 ± 0.31 ppm
  Elution in saline (ppm) Silver: 2.55 ± 0.94 ppm
  Elution in saline (ppm) Zinc: 3.70 ± 0.20 ppm
  Elution in water (ppm) EDTA: 1.55 ± 0.56 ppm
  Elution in water (ppm) Silver: 3.82 ± 1.39 ppm
  Elution in water (ppm) Zinc: 4.21 ± 1.19 ppm
[1]; day 4
  Elution in saline (ppm) EDTA: 1.11 ± 0.61 ppm
  Elution in saline (ppm) Silver: 1.46 ± 0.99 ppm
  Elution in saline (ppm) Zinc: 3.48 ± 0.68 ppm
  Elution in water (ppm) EDTA: 1.13 ± 0.57 ppm
  Elution in water (ppm) Silver: 1.42 ± 0.40 ppm
  Elution in water (ppm) Zinc: 3.37 ± 0.26 ppm
[1]; day 5
  Elution in saline (ppm) EDTA: 0.54 ± 0.11 ppm
  Elution in saline (ppm) Silver: 1.57 ± 1.43 ppm
  Elution in saline (ppm) Zinc: 2.95 ± 1.46 ppm
  Elution in water (ppm) EDTA: 0.79 ± 0.19 ppm
  Elution in water (ppm) Silver: 0.59 ± 0.35 ppm
  Elution in water (ppm) Zinc: 2.49 ± 0.88 ppm
[2]; day 1
  Elution in saline (ppm) EDTA: 16.64 ± 1.41 ppm
  Elution in saline (ppm) Silver: 21.10 ± 1.80 ppm
  Elution in saline (ppm) Zinc: 15.30 ± 2.12 ppm
  Elution in water (ppm) EDTA: 20.80 ± 3.07 ppm
  Elution in water (ppm) Silver: 28.41 ± 3.48 ppm
  Elution in water (ppm) Zinc: 20.77 ± 3.25 ppm
[2]; day 2
  Elution in saline (ppm) EDTA: 17.31 ± 1.43 ppm
  Elution in saline (ppm) Silver: 26.06 ± 2.03 ppm
  Elution in saline (ppm) Zinc: 20.51 ± 3.94 ppm
  Elution in water (ppm) EDTA: 22.50 ± 2.86 ppm
  Elution in water (ppm) Silver: 29.03 ± 4.71 ppm
  Elution in water (ppm) Zinc: 23.57 ± 2.12 ppm
[2]; day 3
  Elution in saline (ppm) EDTA: 21.81 ± 0.42 ppm
  Elution in saline (ppm) Silver: 31.27 ± 0.96 ppm
  Elution in saline (ppm) Zinc: 23.98 ± 1.92 ppm
  Elution in water (ppm) EDTA: 24.64 ± 1.57 ppm
  Elution in water (ppm) Silver: 29.12 ± 2.73 ppm
  Elution in water (ppm) Zinc: 22.53 ± 7.30 ppm
[2]; day 4
  Elution in saline (ppm) EDTA: 22.70 ± 1.70 ppm
  Elution in saline (ppm) Silver: 32.50 ± 0.96 ppm
  Elution in saline (ppm) Zinc: 26.11 ± 1.08 ppm
  Elution in water (ppm) EDTA: 24.30 ± 1.51 ppm
  Elution in water (ppm) Silver: 29.89 ± 3.51 ppm
  Elution in water (ppm) Zinc: 22.23 ± 1.97 ppm
[2]; day 5
  Elution in saline (ppm) EDTA: 25.02 ± 0.96 ppm
  Elution in saline (ppm) Silver: 37.54 ± 0.61 ppm
  Elution in saline (ppm) Zinc: 27.28 ± 3.01 ppm
  Elution in water (ppm) EDTA: 23.03 ± 3.46 ppm
  Elution in water (ppm) Silver: 30.64 ± 5.25 ppm
  Elution in water (ppm) Zinc: 23.54 ± 1.23 ppm
